From patent US20240043427A1 (Gilead Sciences, Inc., priority 2020, published 2024)
Values joined by “and” are separate entries in the source; they are usually repeats but may differ in a detail not shown here. Equal entries are not always repeated.

Key:
CD73 [1] = target: T1, CD73 (Homo sapiens (Human), UniProt P21589); experiment: MDA-MB-231 Cell Based CD73 Activity Assay; details: MDA-MB-231-GFP cells, RPMI medium with 10% human plasma, 200 uM AMP
Method: MDA-MB-231 Cell Based CD73 Activity Assay
MDA-MB-231-GFP cells were seeded in 384-well plates (Greiner 781946) at a density of 10000 cells per well in 50 μL of RPMI medium with 10% HP (human plasma). Cells were plated into assay plate with compounds pre-spotted, for an overnight compound treatment. 50 μL of 400 μM AMP (final concentration 200 μM) using a Bio-tek dispenser. Plates were incubated for 100 mins. […] The samples were run using Rapid fire.

CD73 [2] = target: T1, CD73; experiment: CD73 Biochemical IC50 Assay; details: CD73 0.3 nM, AMP 15 uM, 25 mM Tris pH 7.4, 5 mM MgCl2
Method: CD73 Biochemical IC50 Assay
Compound serial dilutions were pre-spotted into Thermo Nunc assay plate. 50 μL CD73 enzyme buffer (CD73 purchased from R&D system=0.6 nM, 25 mM Tris, pH 7.4, 5 mM MgCl2) was added into the assay plate and incubated for 15 mins. […] The samples were run using Rapid fire.

T1 sequence (P21589 27-574): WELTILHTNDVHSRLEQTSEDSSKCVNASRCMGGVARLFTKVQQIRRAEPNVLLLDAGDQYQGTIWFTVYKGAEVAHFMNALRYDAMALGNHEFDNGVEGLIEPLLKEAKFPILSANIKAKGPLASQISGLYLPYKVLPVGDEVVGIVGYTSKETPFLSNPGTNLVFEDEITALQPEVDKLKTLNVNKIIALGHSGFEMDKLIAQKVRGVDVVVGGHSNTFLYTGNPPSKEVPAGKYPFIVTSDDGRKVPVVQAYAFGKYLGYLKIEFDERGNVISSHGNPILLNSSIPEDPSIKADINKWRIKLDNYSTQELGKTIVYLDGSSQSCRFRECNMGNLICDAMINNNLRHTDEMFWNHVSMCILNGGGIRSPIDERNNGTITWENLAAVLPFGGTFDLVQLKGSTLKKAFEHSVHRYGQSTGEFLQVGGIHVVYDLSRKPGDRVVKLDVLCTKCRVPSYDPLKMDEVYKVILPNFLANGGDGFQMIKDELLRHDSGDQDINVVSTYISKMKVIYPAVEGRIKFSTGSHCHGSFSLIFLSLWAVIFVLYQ

EC50 (CD73 [1])	IC50 (CD73 [2])	Compound
184 nM	164 nM	CC(C)(C)[C@H]1C[C@@H]1c1cc(-c2c[nH]c(=O)[nH]c2=O)nn2ccnc12 (racemic) [Example 6, 5-(8-((1S,2S)-2-(tert-butyl)cyclopropyl)imidazo[1,2-b]pyridazin-6-yl)pyrimidine-2,4-(1H,3H)-dione and 5-(8-((1R,2R)-2-(tert-butyl)cyclopropyl)imidazo[1,2-b]pyridazin-6-yl)pyrimidine-2,4-(1H,3H)-dione]
36.1 nM and 47.2 nM	29 nM and 45.8 nM	O=c1[nH]cc(-c2cc([C@H]3C[C@@H]3C3CC3)c3nccn3n2)c(=O)[nH]1 (racemic) [Example 8, 5-(8-((1R,2S)-[1,1′-bi(cyclopropan)]-2-yl)imidazo[1,2-b]pyridazin-6-yl)pyrimidine-2,4(1H,3H)-dione and 5-(8-((1S,2R)-[1,1′-bi(cyclopropan)]-2-yl)imidazo[1,2-b]pyridazin-6-yl)pyrimidine-2,4(1H,3H)-dione]
18.6 nM	61.6 nM	O=c1[nH]cc(-c2cc([C@H]3C[C@@H]3c3cccc(C(F)(F)F)c3)c3nccn3n2)c(=O)[nH]1 (racemic) [Example 41, 5-[8-[(1S,2S)-2-[3-(trifluoromethyl)phenyl]cyclopropyl]imidazo[1,2-b]pyridazin-6-yl]-1H-pyrimidine-2,4-dione and 5-[8-[(1R,2R)-2-[3-(trifluoromethyl)phenyl]cyclopropyl]imidazo[1,2-b]pyridazin-6-yl]-1H-pyrimidine-2,4-dione]
6.59 nM	32.6 nM	O=c1[nH]cc(-c2cc([C@H]3C[C@@H]3c3ccc(C4CC4)cc3)c3nccn3n2)c(=O)[nH]1 (racemic) [Example 45, 5-(8-((1S,2S)-2-(4-cyclopropylphenyl)cyclopropyl)imidazo[1,2-b]pyridazin-6-yl)pyrimidine-2,4(1H,3H)-dione and 5-(8-((1R,2R)-2-(4-cyclopropylphenyl)cyclopropyl)imidazo[1,2-b]pyridazin-6-yl)pyrimidine-2,4(1H,3H)-dione]

The next lines start with the compound.

Compound	EC50 (CD73 [1])	IC50 (CD73 [2])
5-(8-((1S,2S)-2-(2,3,5-trifluorophenyl)cyclopropyl)imidazo[1,2-b]pyridazin-6-yl)pyrimidine-2,4(1H,3H)-dione and 5-(8-((1R,2R)-2-(2,3,5-trifluorophenyl)cyclopropyl)imidazo[1,2-b]pyridazin-6-yl)pyrimidine-2,4(1H,3H)-dione [Example 61]	16.6 nM	12.1 nM
5-(8-((1S,2S)-2-phenylcyclopropyl)imidazo[1,2-b]pyridazin-6-yl)pyrimidine-2,4-(1H,3H)-dione and 5-(8-((1R,2R)-2-phenylcyclopropyl)imidazo[1,2-b]pyridazin-6-yl)pyrimidine-2,4-(1H,3H)-dione [Example 104]	23.2 nM	196 nM
COC[C@H]1C[C@@H]1c1cc(-c2c[nH]c(=O)[nH]c2=O)nn2ccnc12 (racemic) [Example 4, 5-(8-((1S,2S)-2-(methoxymethyl)cyclopropyl)imidazo[1,2-b]pyridazin-6-yl)pyrimidine-2,4(1H,3H)-dione and 5-(8-((1R,2R)-2-(methoxymethyl)cyclopropyl)imidazo[1,2-b]pyridazin-6-yl)pyrimidine-2,4(1H,3H)-dione]	191 nM and 285 nM	195 nM and 231 nM
O=c1[nH]cc(-c2cc([C@H]3CC34CCC4)c3nccn3n2)c(=O)[nH]1 (racemic) [Example 5, (S)-5-(8-(spiro[2.3]hexan-1-yl)imidazo[1,2-b]pyridazin-6-yl)pyrimidine-2,4(1H,3H)-dione and (R)-5-(8-(spiro[2.3]hexan-1-yl)imidazo[1,2-b]pyridazin-6-yl)pyrimidine-2,4(1H,3H)-dione]	2020 nM and 2530 nM	1550 nM and 2500 nM
